# Experiments:
# Assay in all cases: Test C pre/postemergence
# Assay type in all cases: in vivo
# [1] = tested on: pigweed (Amaranthus retroflexus); settings: for Plant response rating (scale of 0 to 100), Pigweed / Pigweed plant response rating: Postemergence; for Pigweed plant response rating: scale 0 to 100 (0 no effect, 100 complete control); for Plant response rating, Pigweed: Preemergence
# How it was run: (§1)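 Applications: preemergence onto seeded soil and postemergence onto 1- to 4-leaf seedlings, compound carried in non-phytotoxic solvent plus surfactant. Kept in greenhouse 12 to 14 days. Scored visually relative to untreated controls, 0 (no effect) to 100 (complete control).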
# [2] = tested on: cocklebur (Xanthium strumarium); settings: for Plant response rating (scale of 0 to 100), Cocklebur / Cocklebur plant response rating: Postemergence; for Cocklebur plant response rating: scale 0 to 100 (0 no effect, 100 complete control); for Plant response rating, Cocklebur: Preemergence
# How it was run: as §1
# [3] = tested on: yellow nutsedge (Cyperus esculentus); settings: for Plant response rating (scale of 0 to 100), Nutsedge, Yellow / Nutsedge, Yellow plant response rating: Postemergence; for Nutsedge, Yellow plant response rating: scale 0 to 100 (0 no effect, 100 complete control); for Plant response rating, Nutsedge, Yellow: Preemergence, scale 0 to 100, 0 no effect, 100 complete control
# How it was run: as §1
# [4] = tested on: corn (Zea mays); settings: for Plant response rating (scale of 0 to 100), Corn / Corn plant response rating: Postemergence; for Corn plant response rating: scale 0 to 100 (0 no effect, 100 complete control); for Plant response rating, Corn: Preemergence
# How it was run: as §1
# [5] = tested on: goosegrass (Eleusine indica); settings: for Plant response rating (scale of 0 to 100), Goosegrass / Goosegrass plant response rating: Postemergence; for Goosegrass plant response rating: scale 0 to 100 (0 no effect, 100 complete control); for Plant response rating, Goosegrass: Preemergence
# How it was run: as §1
# [6] = tested on: kochia (Kochia scoparia); settings: for Plant response rating (scale of 0 to 100), Kochia / Kochia plant response rating: Postemergence; for Kochia plant response rating: scale 0 to 100 (0 no effect, 100 complete control); for Plant response rating, Kochia: Preemergence
# How it was run: as §1
# [7] = tested on: velvetleaf (Abutilon theophrasti); settings: for Plant response rating (scale of 0 to 100), Velvetleaf / Velvetleaf plant response rating: Postemergence; for Velvetleaf plant response rating: scale 0 to 100 (0 no effect, 100 complete control); for Plant response rating, Velvetleaf: Preemergence
# How it was run: as §1
# [8] = tested on: lambsquarters (Chenopodium album); settings: for Plant response rating (scale of 0 to 100), Lambsquarters / Lambsquarters plant response rating: Postemergence; for Lambsquarters plant response rating: scale 0 to 100 (0 no effect, 100 complete control); for Plant response rating, Lambsquarters: Preemergence
# How it was run: as §1
# [9] = tested on: common ragweed (Ambrosia elatior); settings: for Plant response rating (scale of 0 to 100), Ragweed / Ragweed plant response rating: Postemergence; for Ragweed plant response rating: scale 0 to 100 (0 no effect, 100 complete control); for Plant response rating, Ragweed: Preemergence
# How it was run: as §1
# [10] = tested on: crabgrass (Digitaria sanguinalis); settings: for Plant response rating (scale of 0 to 100), Crabgrass / Crabgrass plant response rating: Postemergence; for Crabgrass plant response rating: scale 0 to 100 (0 no effect, 100 complete control); for Plant response rating, Crabgrass: Preemergence
# How it was run: as §1
# [11] = tested on: Surinam grass (Brachiaria decumbens); settings: for Plant response rating (scale of 0 to 100), Surinam Grass / Surinam Grass plant response rating: Postemergence; for Surinam Grass plant response rating: scale 0 to 100 (0 no effect, 100 complete control); for Plant response rating, Surinam Grass: Preemergence
# How it was run: as §1
# [12] = tested on: common (oilseed) sunflower (Helianthus annuus); settings: Preemergence
# How it was run: as §1
# [13] = 16 g ai/ha, scale 0 to 100, 0 no effect, 100 complete control
# [14] = 31 g ai/ha, scale 0 to 100, 0 no effect, 100 complete control
# [15] = 62 g ai/ha, scale 0 to 100, 0 no effect, 100 complete control
smiles,measurement,setting,value
COCc1nc(C2CC2)nc(N)c1Br [Compound 11],"Plant response rating (scale of 0 to 100), Pigweed",[1]; 16 g ai/ha,60
same,"Plant response rating (scale of 0 to 100), Pigweed",[1]; 31 g ai/ha,70
same,Pigweed plant response rating,[1]; 62 g ai/ha,80
same,Pigweed plant response rating,[1]; 125 g ai/ha,90
same,"Plant response rating, Pigweed",[1]; [13],0
same,"Plant response rating, Pigweed",[1]; [14],0
same,"Plant response rating, Pigweed",[1]; [15],65
same,"Plant response rating, Pigweed","[1]; 125 g ai/ha, scale 0 to 100",90
same,"Plant response rating (scale of 0 to 100), Cocklebur",[2]; 16 g ai/ha,0
same,"Plant response rating (scale of 0 to 100), Cocklebur",[2]; 31 g ai/ha,0
same,Cocklebur plant response rating,[2]; 62 g ai/ha,25
same,Cocklebur plant response rating,[2]; 125 g ai/ha,40
same,"Plant response rating, Cocklebur",[2]; [13],0
same,"Plant response rating, Cocklebur",[2]; [14],0
same,"Plant response rating, Cocklebur",[2]; [15],0
same,"Plant response rating, Cocklebur","[2]; 125 g ai/ha, scale 0 to 100",0
same,"Plant response rating (scale of 0 to 100), Nutsedge, Yellow",[3]; 16 g ai/ha,0
same,"Plant response rating (scale of 0 to 100), Nutsedge, Yellow",[3]; 31 g ai/ha,0
same,"Nutsedge, Yellow plant response rating",[3]; 62 g ai/ha,0
same,"Nutsedge, Yellow plant response rating",[3]; 125 g ai/ha,0
same,"Plant response rating, Nutsedge, Yellow",[3]; 16 g ai/ha,0
same,"Plant response rating, Nutsedge, Yellow",[3]; 31 g ai/ha,0
same,"Plant response rating, Nutsedge, Yellow",[3]; 62 g ai/ha,0
same,"Plant response rating (scale of 0 to 100), Corn",[4]; 16 g ai/ha,0
same,"Plant response rating (scale of 0 to 100), Corn",[4]; 31 g ai/ha,0
same,Corn plant response rating,[4]; 62 g ai/ha,0
same,Corn plant response rating,[4]; 125 g ai/ha,0
same,"Plant response rating, Corn",[4]; [13],0
same,"Plant response rating, Corn",[4]; [14],0
same,"Plant response rating, Corn",[4]; [15],0
same,"Plant response rating, Corn","[4]; 125 g ai/ha, scale 0 to 100",0
same,"Plant response rating (scale of 0 to 100), Goosegrass",[5]; 16 g ai/ha,0
same,"Plant response rating (scale of 0 to 100), Goosegrass",[5]; 31 g ai/ha,0
same,Goosegrass plant response rating,[5]; 62 g ai/ha,0
same,Goosegrass plant response rating,[5]; 125 g ai/ha,0
same,"Plant response rating, Goosegrass",[5]; [13],0
same,"Plant response rating, Goosegrass",[5]; [14],0
same,"Plant response rating, Goosegrass",[5]; [15],0
same,"Plant response rating, Goosegrass","[5]; 125 g ai/ha, scale 0 to 100",0
same,"Plant response rating (scale of 0 to 100), Kochia",[6]; 16 g ai/ha,40
same,"Plant response rating (scale of 0 to 100), Kochia",[6]; 31 g ai/ha,65
same,Kochia plant response rating,[6]; 62 g ai/ha,75
same,Kochia plant response rating,[6]; 125 g ai/ha,90
same,"Plant response rating, Kochia",[6]; [13],0
same,"Plant response rating, Kochia",[6]; [14],0
same,"Plant response rating, Kochia",[6]; [15],0
same,"Plant response rating, Kochia","[6]; 125 g ai/ha, scale 0 to 100",60
same,"Plant response rating (scale of 0 to 100), Velvetleaf",[7]; 16 g ai/ha,20
same,"Plant response rating (scale of 0 to 100), Velvetleaf",[7]; 31 g ai/ha,50
same,Velvetleaf plant response rating,[7]; 62 g ai/ha,60
same,Velvetleaf plant response rating,[7]; 125 g ai/ha,75
same,"Plant response rating, Velvetleaf",[7]; [13],0
same,"Plant response rating, Velvetleaf",[7]; [14],0
same,"Plant response rating, Velvetleaf",[7]; [15],0
same,"Plant response rating, Velvetleaf","[7]; 125 g ai/ha, scale 0 to 100",0
same,"Plant response rating (scale of 0 to 100), Lambsquarters",[8]; 16 g ai/ha,50
same,"Plant response rating (scale of 0 to 100), Lambsquarters",[8]; 31 g ai/ha,60
same,Lambsquarters plant response rating,[8]; 62 g ai/ha,70
same,Lambsquarters plant response rating,[8]; 125 g ai/ha,80
same,"Plant response rating, Lambsquarters",[8]; [13],0
same,"Plant response rating, Lambsquarters",[8]; [14],0
same,"Plant response rating, Lambsquarters",[8]; [15],40
same,"Plant response rating, Lambsquarters","[8]; 125 g ai/ha, scale 0 to 100",85
same,"Plant response rating (scale of 0 to 100), Ragweed",[9]; 16 g ai/ha,15
same,"Plant response rating (scale of 0 to 100), Ragweed",[9]; 31 g ai/ha,45
same,Ragweed plant response rating,[9]; 62 g ai/ha,65
same,Ragweed plant response rating,[9]; 125 g ai/ha,75
same,"Plant response rating, Ragweed",[9]; [13],0
same,"Plant response rating, Ragweed",[9]; [14],0
same,"Plant response rating, Ragweed",[9]; [15],20
same,"Plant response rating, Ragweed","[9]; 125 g ai/ha, scale 0 to 100",45
same,"Plant response rating (scale of 0 to 100), Crabgrass",[10]; 16 g ai/ha,0
same,"Plant response rating (scale of 0 to 100), Crabgrass",[10]; 31 g ai/ha,0
same,Crabgrass plant response rating,[10]; 62 g ai/ha,0
same,Crabgrass plant response rating,[10]; 125 g ai/ha,20
same,"Plant response rating, Crabgrass",[10]; [13],0
same,"Plant response rating, Crabgrass",[10]; [14],0
same,"Plant response rating, Crabgrass",[10]; [15],0
same,"Plant response rating, Crabgrass","[10]; 125 g ai/ha, scale 0 to 100",60
same,"Plant response rating (scale of 0 to 100), Surinam Grass",[11]; 16 g ai/ha,0
same,"Plant response rating (scale of 0 to 100), Surinam Grass",[11]; 31 g ai/ha,0
same,Surinam Grass plant response rating,[11]; 62 g ai/ha,0
same,Surinam Grass plant response rating,[11]; 125 g ai/ha,0
same,"Plant response rating, Surinam Grass",[11]; [13],0
same,"Plant response rating, Surinam Grass",[11]; [14],0
same,"Plant response rating, Surinam Grass",[11]; [15],100
same,"Plant response rating, Surinam Grass","[11]; 125 g ai/ha, scale 0 to 100",100
same,"Plant response rating, Sunflower",[12]; [13],0
same,"Plant response rating, Sunflower",[12]; [14],0
same,"Plant response rating, Sunflower",[12]; [15],0
same,"Plant response rating, Sunflower","[12]; 125 g ai/ha, scale 0 to 100",0
